One test addresses T1, 5-hydroxytryptamine receptor 4 (Homo sapiens, UniProt Q13639). As to the kind of experiment: Antagonist activity (inhibition of 5-HT-stimulated cAMP synthesis) of compound at cloned human 5-hydroxytryptamine 4E receptor expressed in C6 glial cells by Schild analysis.
T1 sequence (Q13639 whole entry): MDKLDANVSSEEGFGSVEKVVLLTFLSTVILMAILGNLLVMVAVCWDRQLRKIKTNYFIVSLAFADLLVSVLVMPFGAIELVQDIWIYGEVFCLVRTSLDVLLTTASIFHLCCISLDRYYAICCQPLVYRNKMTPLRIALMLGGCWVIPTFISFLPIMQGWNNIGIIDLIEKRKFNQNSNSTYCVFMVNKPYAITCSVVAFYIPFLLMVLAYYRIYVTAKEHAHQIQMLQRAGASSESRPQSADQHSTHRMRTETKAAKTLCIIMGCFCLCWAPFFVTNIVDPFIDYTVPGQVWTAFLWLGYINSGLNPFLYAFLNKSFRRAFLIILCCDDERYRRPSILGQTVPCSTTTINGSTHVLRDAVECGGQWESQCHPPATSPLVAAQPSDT
For orientation: Kb means the affinity of an antagonist, worked out from how it opposes an agonist. Compound `COc1cc(N)c(Cl)cc1C(=O)OCCN1CCC(CNc2ccc([N+](=O)[O-])c3nonc23)CC1` displayed a Kb of 2.1 nM. That is a single-digit nanomolar value.

`COc1cc(N)c(Cl)cc1C(=O)OCCN1CCC(CN2C(=O)c3cccc4c(N)ccc(c34)C2=O)CC1` displayed a Kb of 9 nM. Still for that read-out and setting: as for `COc1cc(N)c(Cl)cc1C(=O)OCCN1CCC(CNS(=O)(=O)c2cccc3c(N(C)C)cccc23)CC1`, the figure is 5.7 nM.

For the next test, the target named is T1, 5-hydroxytryptamine receptor 4. Nature of the test: Binding affinity towards cloned human 5-hydroxytryptamine 4E receptor expressed in C6 glial cells using [3H]GR-113808 as radioligand. In kind it is cell-based.
As a reminder, the Ki is a measure of affinity in units of concentration, obtained from inhibition or displacement. A higher Ki goes with lower affinity. For the compound `COc1cc(N)c(Cl)cc1C(=O)OCCN1CCN(C(=O)CNS(=O)(=O)c2cccc3c(N(C)C)cccc23)CC1`, the Ki turned out to be 1720 nM. In turn, `COc1cc(N)c(Cl)cc1C(=O)OCCN1CCN(C(=O)CCCCCCCNS(=O)(=O)c2cccc3c(N(C)C)cccc23)CC1` registered a Ki of 31 nM. `COc1cc(N)c(Cl)cc1C(=O)OCCN1CCC(CNc2ccc([N+](=O)[O-])c3n[o+][n-]c23)CC1` registered a Ki of 7.5 nM. On the same count and under the same terms, as for `COc1cc(N)c(Cl)cc1C(=O)OCCN1CCC(CCCCN2C(=O)c3cccc4c(N(C)C)ccc(c34)C2=O)CC1`, the figure is 59 nM. With `COc1cc(N)c(Cl)cc1C(=O)OCCN1CCC(CN2C(=O)c3cccc4c(N)ccc(c34)C2=O)CC1`, affinity was put at a Ki of 64 nM.

Compound `COc1cc(N)c(Cl)cc1C(=O)OCCN1CCC(CNS(=O)(=O)c2cccc3c(N(C)C)cccc23)CC1` yielded a Ki of 7 nM.

For the compound `COc1cc(N)c(Cl)cc1C(=O)OCCN1CCN(C(=O)CCCNS(=O)(=O)c2cccc3c(N(C)C)cccc23)CC1`, the Ki was determined as 183 nM. As for `COc1cc(N)c(Cl)cc1C(=O)OCCN1CCN(C(=O)CCNS(=O)(=O)c2cccc3c(N(C)C)cccc23)CC1`, the inhibitory constant (Ki) was 116 nM. Against the preceding compound, the Ki is about 1.6-fold lower. Still for that read-out and setting: as for `COc1cc(N)c(Cl)cc1C(=O)OCCN1CCC(CN2C(=O)c3cccc4c(N(C)C)ccc(c34)C2=O)CC1`, the figure is 181 nM; as for `COc1cc(N)c(Cl)cc1C(=O)OCCN1CCC(CCCNS(=O)(=O)c2cccc3c(N(C)C)cccc23)CC1`, 32 nM.

Consider `COc1cc(N)c(Cl)cc1C(=O)OCCN1CCC(NS(=O)(=O)c2cccc3c(N(C)C)cccc23)CC1`, for which the Ki amounted to 264 nM. Against the preceding compound, the Ki is about 8.2-fold higher.

For the compound `COc1cc(N)c(Cl)cc1C(=O)OCCN1CCC(CCCCNS(=O)(=O)c2cccc3c(N(C)C)cccc23)CC1`, the Ki turned out to be 24 nM. This Ki is about 11-fold lower than that of the compound before. With `COc1cc(N)c(Cl)cc1C(=O)OCCN1CCN(C(=O)CCCCCNS(=O)(=O)c2cccc3c(N(C)C)cccc23)CC1`, the inhibition constant Ki is 180 nM. In the case of `COc1cc(N)c(Cl)cc1C(=O)OCCN1CCN(C(=O)CCCCCCCCCCNS(=O)(=O)c2cccc3c(N(C)C)cccc23)CC1`, the Ki was 96 nM.

The compound `COc1cc(N)c(Cl)cc1C(=O)OCCN1CCC(CCNS(=O)(=O)c2cccc3c(N(C)C)cccc23)CC1` gave a Ki of 77 nM.
